This is an account of results in US10683267B1, “Antidiabetic compounds” (King Abdulaziz University, priority 2019, dated 2020).

One test deals with T1, DPP-IV enzyme (Homo sapiens, UniProt P27487).
T1 construct: purchased Biovision (Milpitas, Calif., USA)
Put plainly: In vitro DPP-IV inhibition assay (Biovision kit, fluorescence). It is filed as biochemical. The note with it: for DPP-4 enzyme inhibition activity, in words: SAR discussion; for % Inhibition @ 100 nM: compound at 100 nM. On the procedure:
DPP-IV inhibition assay was conducted using a kit purchased from Biovision (Milpitas, Calif., USA). Briefly, DPP-IV enzyme was diluted with Tris buffer and pipetted 50 μl into glass mini-cells. […] Finally a volume of 25 μl of DPP-IV substrate was added into each tube. The fluorescence generated from hydrolysis of the substrate was read at Ex/Em=360/460 nm using Modulus® single tube multimode reader (Promega, USA). Baseline fluorescence was recorded before incubation (R1) and 20 min after incubation (R2).
The standard DPP-IV inhibitor drug sitagliptin employed as positive control. […] Sigmoidal concentration-response curves for DPP-IV % inhibition versus log concentration were plotted using Graphpad prism software, version 5.00 (GraphPad Software, Inc. La Jolla, Calif., USA).

Test [1] relates to diabetic mice. Nature of the test: Fasting blood glucose of diabetic mice treated daily for 6 consecutive days. It is filed as in vivo. The note with it: 50 mg/kg oral daily. As to the method:
(§1) The Biochemical and Research Ethical Committee of King Abulaziz University (Jeddah, Saudi Arabia), in accordance with the NIH guidelines, approved all procedures, and the animals received human care during the experimental period. Experiments were carried out using adult male Swiss albino mice (SWR), of 8-9 weeks age and 30-35 g weight. Animals were purchased from the animal house of the King Fahed Medical Research center (KFMRC), Jeddah, Saudi Arabia. Mice were kept at a constant temperature of 24-25° C. and were subjected to a controlled 12 h light-dark cycle; they had free access to water and pelleted diet ad libitum.
(§2) Nicotinamide (210 mg/kg b.w.), dissolved in saline, was injected intraperitoneally 15 min before the intraperitoneal injection of Streptozotocin (STZ) (Sigma, 180 mg/kg b.w.), which was freshly prepared in citrate buffer (pH 4.5). Control animals received both vehicles. During the experimental period, animals' food intake and body weight gain were monitored once a week.
(§3) On the same groups that received the single dose treatment, the tested compounds were given daily by oral gavage for six consecutive days. On day 6, the overnight fasted diabetic mice were pretreated with the 6th oral dose of the tested compounds. Two hours later, an oral glucose was loaded (2 g/kg/10 ml b.w.). Blood glucose levels were determined using the Accu-check Go®. Samples were collected just before drug administration (Fasting Blood glucose), then 2 h after drug treatment and before glucose administration. Samples collection was continued at 20, 40, 60 and 120 min intervals after glucose loading.
The oral glucose tolerance test (OGTT) was performed over six days on diabetic mice. The glucose level was monitored daily (Table 3). The results were analyzed for activities after a single dose (Table 4) and after the 6th dose of the drug (Table 5).

Test [2] has as its system diabetic mice. Put plainly: Oral glucose tolerance test (OGTT) after single dose in diabetic mice. It is filed as in vivo. The note with it: for R.P. to Vildagliptin (Single Dose): Table 6, relative potency, B.G. = blood glucose; for AUC of blood glucose in OGTT (X, mean): glucose load 2 g/kg 2 h later, AUC 0-120 min. On the procedure:
as §1, §2
Oral glucose tolerance tests were performed in 14 h overnight fasted diabetic mice that were pretreated with a single oral dose of the tested compounds. […] The drugs were suspended in carboxymethyl cellulose (CMC)-Na (1% in distilled water) and the dosing volume was adjusted at 10 mL/kg body weight of the mouse. Then an oral glucose load was administered (2 g/kg) 2 h after drug treatment. Blood glucose levels were determined using the Accu-check Go® (Roche Diagnostics, Michigan, USA). Samples were collected just before drug administration (fasting blood glucose), then at 2 h after drug treatment (immediately before glucose loading). Then blood sample collection was continued at 20, 40, 60 and 120 min intervals after glucose loading.
Animals were distributed between three categories of groups. Each group is composed of six animals (n=6) […] as follows:
Category 1: One group of animals were 14 h overnight-fasted normoglycemic mice and vehicle-treated (1% CMC-Na) at a dose of 10 ml/kg.
Category 2: Another group of animals was overnight fasted diabetic mice received the vehicle (1% CMC-Na) at a dosing volume of 10 ml/kg and served as a negative control.
Category 4: Animals of these groups were overnight fasted diabetic mice received the tested compounds at a dose of 50 mg/kg in 1% CMC (volume of 10 ml/kg).

For test [3], the system named is diabetic mice. Put plainly: Oral glucose tolerance test (OGTT) after multiple doses (6 days) in diabetic mice. In kind it is in vivo. The note with it: for AUC % change from diabetic control / AUC Δ from diabetic control / Relative potency to vildagliptin / AUC of blood glucose in OGTT (X, mean): 50 mg/kg oral for 6 days; for Relative potency to vildagliptin: OGTT AUC; for AUC of blood glucose in OGTT (X, mean): glucose load 2 g/kg 2 h after 6th dose, AUC 0-120 min; for R.P. to Vildagliptin (6 Days): Table 6, relative potency, B.G. = blood glucose. On the procedure: as §1, §2, §3

The mark [4] stands for this setting: Table 2, head prints no unit, nM per Table 6, read-out: IC50.

Entries after “also recorded” stand apart in the source; their conditions may differ. Where two headings read alike, the source gives them in different places. Marks after values point to notes of the source that are not given here.

T1 sequence (P27487 whole entry, species assumed): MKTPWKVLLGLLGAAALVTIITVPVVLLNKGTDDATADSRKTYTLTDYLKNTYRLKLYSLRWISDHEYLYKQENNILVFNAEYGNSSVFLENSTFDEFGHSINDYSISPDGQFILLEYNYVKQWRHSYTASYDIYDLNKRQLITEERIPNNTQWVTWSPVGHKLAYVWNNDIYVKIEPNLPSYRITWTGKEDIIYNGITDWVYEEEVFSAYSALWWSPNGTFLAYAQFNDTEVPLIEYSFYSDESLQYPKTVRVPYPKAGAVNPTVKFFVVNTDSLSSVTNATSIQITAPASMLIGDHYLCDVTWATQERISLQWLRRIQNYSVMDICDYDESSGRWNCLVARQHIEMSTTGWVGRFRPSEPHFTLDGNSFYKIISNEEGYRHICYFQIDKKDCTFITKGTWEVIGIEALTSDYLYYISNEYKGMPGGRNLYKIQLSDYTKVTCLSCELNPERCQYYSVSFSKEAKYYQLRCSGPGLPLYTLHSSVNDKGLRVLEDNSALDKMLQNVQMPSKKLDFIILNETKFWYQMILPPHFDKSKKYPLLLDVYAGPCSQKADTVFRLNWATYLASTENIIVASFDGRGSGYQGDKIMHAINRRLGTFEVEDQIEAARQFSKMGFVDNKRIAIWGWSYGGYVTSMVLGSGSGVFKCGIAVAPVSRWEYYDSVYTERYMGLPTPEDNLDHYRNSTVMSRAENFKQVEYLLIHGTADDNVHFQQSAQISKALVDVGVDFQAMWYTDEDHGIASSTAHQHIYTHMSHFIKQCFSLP

For `O=C(CNC12CC3CC(CC(O)(C3)C1)C2)Nc1cccc(C(F)(F)F)c1` [Compound 15], on DPP-IV enzyme, the “DPP-4 enzyme inhibition activity, in words” value is “did not show good activity; also recorded: generally weak”. For the same molecule, the IC50 on DPP-IV enzyme (setting [4]) was 116 nM. For the same molecule, the IC50 on DPP-IV enzyme (Table 6, read-out: IC50) is greater than 100 nM. Also, on DPP-IV enzyme (compound at 1000 nM), the “% Inhibition (values marked *: inhibition at 1000 nM)” value is reported as 97.81* %. In the test on diabetic mice [1], the “Fasting blood glucose level, Day 1” value was 167.20 ± mg/dL; the “Fasting blood glucose level, Day 2” value is listed as 87.80 ± mg/dL; the “Fasting blood glucose level, Day 3” value is 177.60 ± mg/dL; the “Fasting blood glucose level, Day 4” value was 166.80 ± mg/dL. In addition, in the test with diabetic mice [1], the “Fasting blood glucose level, Day 5” value is listed as 175.80 ± mg/dL and the “Fasting blood glucose level, Day 6” value is reported as 161.80 mg/dL. In addition, in the test on diabetic mice [2], the “R.P. to Vildagliptin (Single Dose)” value was determined as 1.18. In the test with diabetic mice [2] (single oral dose 50 mg/kg), the “AUC % change from diabetic control” value is −39.13%; the “AUC Δ from diabetic control” value stood at 19985 mg·min/dL; the “AUC of blood glucose in OGTT (X, mean)” value is listed as 31080* mg · dL^−1 · min. In the test on diabetic mice [3], the “AUC % change from diabetic control” value is −26.07%; the “AUC Δ from diabetic control” value was found to be 13729 mg·min/dL; the “Relative potency to vildagliptin” value was found to be 0.72; the “AUC of blood glucose in OGTT (X, mean)” value is recorded as 38926* mg · dL^−1 · min. In addition, the “R.P. to Vildagliptin (6 Days)” value with diabetic mice [3] is listed as 0.72.
With `COC(=O)c1ccccc1NC(=O)CNC12CC3CC(CC(O)(C3)C1)C2` [Compound 16], on DPP-IV enzyme, the “DPP-4 enzyme inhibition activity, in words” value is “weakened the enzyme inhibition activities” and the “% Inhibition @ 100 nM” value is on record as 45.61%. In the test on diabetic mice [1], the “Fasting blood glucose level, Day 1” value was found to be 174.00 mg/dL; the “Fasting blood glucose level, Day 2” value is recorded as 93.80 ± mg/dL; the “Fasting blood glucose level, Day 3” value is reported as 158.40 ± mg/dL; the “Fasting blood glucose level, Day 4” value was 127.40 ± mg/dL. In the test with diabetic mice [1], the “Fasting blood glucose level, Day 5” value was 171.00 ± mg/dL and the “Fasting blood glucose level, Day 6” value is 107.60 ± mg/dL. For the same molecule, in the test on diabetic mice [2] (single oral dose 50 mg/kg), the “AUC % change from diabetic control” value is reported as −39.51%; the “AUC Δ from diabetic control” value turned out to be 20179 mg·min/dL; the “AUC of blood glucose in OGTT (X, mean)” value is reported as 30886* mg · dL^−1 · min. Moreover, the “Relative potency to vildagliptin” value in the test on diabetic mice [2] (single oral dose 50 mg/kg, OGTT AUC) is recorded as 1.19. Also, in the test on diabetic mice [3], the “AUC % change from diabetic control” value is −52.53%; the “AUC Δ from diabetic control” value turned out to be 28183 mg·min/dL; the “Relative potency to vildagliptin” value was found to be 1.45; the “AUC of blood glucose in OGTT (X, mean)” value is 24472* mg · dL^−1 · min.
`N#Cc1cccc(NC(=O)CNC23CC4CC(CC(C4)C2)C3)c1` [Compound 110]: at DPP-IV enzyme, the “DPP-4 enzyme inhibition activity, in words” value was “high affinity towards the enzyme” and the “% Inhibition @ 100 nM” value amounted to 65.51%. The IC50 on DPP-IV enzyme (setting [4]) stood at 3.02 nM. Besides, at DPP-IV enzyme (Table 6, read-out: IC50), the IC50 was determined as 3.02 nM. At DPP-IV enzyme (read-out: enzymatic inhibition value / inhibitory activity (IC50)), the IC50 turned out to be 3 nM. For the same molecule, in the test on diabetic mice [1], the “Fasting blood glucose level, Day 1” value is recorded as 165.00 ± mg/dL; the “Fasting blood glucose level, Day 2” value is on record as 107.20 ± mg/dL; the “Fasting blood glucose level, Day 3” value is 83.00 ± mg/dL; the “Fasting blood glucose level, Day 4” value is reported as 105.60 ± mg/dL. In the test on diabetic mice [1], the “Fasting blood glucose level, Day 5” value is recorded as 111.80 ± mg/dL and the “Fasting blood glucose level, Day 6” value worked out at 121.40 mg/dL. Further, in the test on diabetic mice [2], the “R.P. to Vildagliptin (Single Dose)” value is recorded as 1.11. Besides, in the test with diabetic mice [2] (single oral dose 50 mg/kg), the “AUC Δ from diabetic control” value worked out at 18801 mg·min/dL and the “AUC of blood glucose in OGTT (X, mean)” value is 32264* mg · dL^−1 · min. For the same molecule, in the test on diabetic mice [3], the “AUC % change from diabetic control” value is listed as −30.05%; the “AUC Δ from diabetic control” value came out at 15825 mg·min/dL; the “Relative potency to vildagliptin” value was 0.83; the “AUC of blood glucose in OGTT (X, mean)” value was 36830* mg · dL^−1 · min. For the same molecule, the “R.P. to Vildagliptin (6 Days)” value in the test on diabetic mice [3] worked out at 0.27.
In the case of `O=C(CNC12CC3CC(CC(C3)C1)C2)Nc1cccc(O)c1` [Compound 111], on DPP-IV enzyme, the “DPP-4 enzyme inhibition activity, in words” value is “much better performance” and the “% Inhibition @ 100 nM” value is 79.63%. For the same molecule, the IC50 on DPP-IV enzyme (setting [4]) is 2.08 nM. The IC50 at DPP-IV enzyme (Table 6, read-out: IC50) was determined as 2.08 nM. In addition, in the test on diabetic mice [1], the “Fasting blood glucose level, Day 1” value came to 171.00 mg/dL; the “Fasting blood glucose level, Day 2” value is on record as 122.40 ± mg/dL; the “Fasting blood glucose level, Day 3” value is 74.80 ± mg/dL; the “Fasting blood glucose level, Day 4” value was 153.00 ± mg/dL. In the test with diabetic mice [1], the “Fasting blood glucose level, Day 5” value is 141.20 ± mg/dL and the “Fasting blood glucose level, Day 6” value turned out to be 180.20 mg/dL. The “R.P. to Vildagliptin (Single Dose)” value in the test on diabetic mice [2] turned out to be 1.52. Besides, in the test on diabetic mice [2] (single oral dose 50 mg/kg), the “AUC % change from diabetic control” value is recorded as −50.39%; the “AUC Δ from diabetic control” value amounted to 25735 mg·min/dL; the “AUC of blood glucose in OGTT (X, mean)” value is reported as 25330* mg · dL^−1 · min. Besides, in the test on diabetic mice [3], the “AUC % change from diabetic control” value is listed as −9.820%; the “AUC Δ from diabetic control” value is 6161 mg·min/dL; the “Relative potency to vildagliptin” value came to 0.27; the “AUC of blood glucose in OGTT (X, mean)” value was 47494 mg·min/dL. Moreover, in the test with diabetic mice [3], the “R.P. to Vildagliptin (6 Days)” value is 0.46.
With `O=C(CNC12CC3CC(CC(C3)C1)C2)Nc1ccc(Cl)cc1` [Compound 112], on DPP-IV enzyme, the “DPP-4 enzyme inhibition activity, in words” value is “high DPP-4 inhibition” and the “% Inhibition @ 100 nM” value was 61.82%. On DPP-IV enzyme (setting [4]), the IC50 came to 7.41 nM. Also, the IC50 at DPP-IV enzyme (Table 6, read-out: IC50) was found to be 7.41 nM. Besides, in the test with diabetic mice [1], the “Fasting blood glucose level, Day 1” value is recorded as 159.20 ± mg/dL; the “Fasting blood glucose level, Day 2” value is 114.40 ± mg/dL; the “Fasting blood glucose level, Day 3” value is listed as 84.40 ± mg/dL; the “Fasting blood glucose level, Day 4” value is 115.40 ± mg/dL. Also, in the test with diabetic mice [1], the “Fasting blood glucose level, Day 5” value was 132.40 ± mg/dL and the “Fasting blood glucose level, Day 6” value is recorded as 122.00 ± mg/dL. For the same molecule, the “R.P. to Vildagliptin (Single Dose)” value with diabetic mice [2] is 1.14. Also, in the test with diabetic mice [2] (single oral dose 50 mg/kg), the “AUC % change from diabetic control” value was −37.78%; the “AUC Δ from diabetic control” value amounted to 19295 mg·min/dL; the “AUC of blood glucose in OGTT (X, mean)” value is listed as 31770* mg · dL^−1 · min. Besides, in the test with diabetic mice [3], the “AUC % change from diabetic control” value is −16.99%; the “AUC Δ from diabetic control” value amounted to 8947 mg·min/dL; the “Relative potency to vildagliptin” value came to 0.46; the “AUC of blood glucose in OGTT (X, mean)” value is given as 43708* mg · dL^−1 · min. The “R.P. to Vildagliptin (6 Days)” value in the test with diabetic mice [3] came out at 0.79.
